# Activity calls are given as the source filed them. The calls are words filed in the database; no cut-off is given here.
# Experiments:
# physchem = settings: octanol/phosphate buffer
# Description: Octanol-phosphate buffer partition coefficient, log P of the compound after 24 hrs by UV spectroscopic analysis
# Mus musculus [1] = experiment: Anticonvulsant activity in albino CF-1 mouse assessed as protection against 6 Hz psychomotor seizure at 100 mg/kg, ip after […] by minimal clonic seizure test relative to control
# Description: Anticonvulsant activity in albino CF-1 mouse assessed as protection against 6 Hz psychomotor seizure at 100 mg/kg, ip after 0.25 hrs by minimal clonic seizure test relative to control
# Mus musculus [2] = experiment: Anticonvulsant activity in albino CF-1 mouse assessed as protection against 6 Hz psychomotor seizure at 100 mg/kg, ip after 4 hrs by minimal clonic seizure test; assay type: functional; settings: route intraperitoneal
# Mus musculus [3] = experiment: Anticonvulsant activity in albino CF-1 mouse assessed as protection against subcutaneous metrazole-induced seizures in half or more animals at 300 mg/kg, ip after 0.5 hrs; assay type: functional, organism-based; parameters: dose 300 mg/kg
# Mus musculus [4] = experiment: Anticonvulsant activity in ip dosed albino CF-1 mouse assessed as protection against maximal electroshock-induced seizures in half or more animals after 0.5 hrs; assay type: functional; settings: albino CF-1, ip, read-out: MED
# Mus musculus [5] = experiment: Anticonvulsant activity in ip dosed albino CF-1 mouse assessed as protection against maximal electroshock-induced seizures in half or more animals after 2 hrs; assay type: functional; settings: albino CF-1, ip, read-out: MED
# Mus musculus [6] = experiment: Anticonvulsant activity in ip dosed albino CF-1 mouse assessed as protection against maximal electroshock-induced seizures in half or more animals after 4 hrs; assay type: functional; settings: albino CF-1, ip, read-out: MED
# Mus musculus [7] = experiment: Anticonvulsant activity in albino CF-1 mouse assessed as protection against subcutaneous metrazole-induced seizures in half or more animals at 300 mg/kg, ip after 4 hrs; assay type: functional, organism-based; parameters: dose 300 mg/kg
# Mus musculus [8] = experiment: Anticonvulsant activity in albino CF-1 mouse assessed as protection against 6 Hz psychomotor seizure at 100 mg/kg, ip after 1 hr by minimal clonic seizure test relative to control; assay type: functional; settings: route intraperitoneal
# Rattus norvegicus [9] = experiment: Neurotoxicity in albino Sprague-Dawley rat assessed as motor impairment up to 600 mg/kg, ip measured for 4 hrs; assay type: toxicity, organism-based; parameters: dose 600 mg/kg, route intraperitoneal; settings: in vivo
# [10] = Neuroprotective activity in hippocampal slices (unknown origin) assessed as protection against kainic acid-induced cell death by propidium-iodide staining-based fluorescence assay; assay type: functional, tissue-based; settings: Hippocampus
# Rattus norvegicus [11] = experiment: Anticonvulsant activity in albino Sprague-Dawley rat assessed as protection against pilocarpine-induced status epilepticus at 600 mg/kg, ip administered prior to pilocarpine-challenge; assay type: functional, organism-based; parameters: dose 600 mg/kg
# [12] = Neuroprotective activity in hippocampal slices (unknown origin) assessed as protection against NMDA-induced cell death by propidium-iodide staining-based fluorescence assay; assay type: functional, tissue-based; settings: Hippocampus
# Mus musculus [13] = experiment: Anticonvulsant activity in albino CF-1 mouse assessed as protection against 6 Hz psychomotor seizure at 100 mg/kg, ip after 0.5 hrs by minimal clonic seizure test relative to control; assay type: functional; settings: route intraperitoneal
# [14] = Inhibition of voltage-dependent calcium channel subunit alpha-2/delta gabapentin binding site (unknown origin); parameters: species or system Homo sapiens
# Mus musculus [15] = experiment: Anticonvulsant activity in ip dosed albino CF-1 mouse assessed as protection against subcutaneous metrazole-induced seizures in half or more animals after 0.5 hrs; assay type: functional; settings: albino CF-1, 0.5 h, read-out: MED
# Mus musculus [16] = experiment: Anticonvulsant activity in albino CF-1 mouse at 300 mg/kg, ip assessed as protection against maximal electroshock-induced seizures in half or more animals after 4 hrs; assay type: functional, organism-based; parameters: dose 300 mg/kg
# Mus musculus [17] = experiment: Anticonvulsant activity in albino CF-1 mouse at 300 mg/kg, ip assessed as protection against maximal electroshock-induced seizures in half or more animals after 2 hrs; assay type: functional, organism-based; parameters: dose 300 mg/kg
# Mus musculus [18] = experiment: Anticonvulsant activity in albino CF-1 mouse at 300 mg/kg, ip assessed as protection against maximal electroshock-induced seizures in half or more animals after 0.5 hrs; assay type: functional, organism-based; parameters: dose 300 mg/kg
# Mus musculus [19] = experiment: Anticonvulsant activity in ip dosed albino CF-1 mouse assessed as protection against 6 Hz psychomotor seizure after 4 hrs by minimal clonic seizure test; assay type: functional; settings: albino CF-1, ip
# Mus musculus [20] = experiment: Anticonvulsant activity in albino CF-1 mouse at 100 mg/kg, ip assessed as protection against maximal electroshock-induced seizures in half or more animals after 4 hrs relative to control; assay type: functional; settings: route intraperitoneal
# Rattus norvegicus [21] = experiment: Effect on GABA levels in Wistar rat midbrain at 30 mg/kg, ip after 2 hrs measured per 100 mg tissue; assay type: functional; settings: route intraperitoneal
# Rattus norvegicus [22] = experiment: Effect on GABA levels in Wistar rat medulla oblongata at 30 mg/kg, ip after 2 hrs measured per 100 mg tissue; assay type: functional; settings: route intraperitoneal
# Rattus norvegicus [23] = experiment: Effect on GABA levels in Wistar rat cerebellum at 30 mg/kg, ip after 2 hrs measured per 100 mg tissue; assay type: functional; settings: route intraperitoneal
# Rattus norvegicus [24] = experiment: Effect on GABA levels in Wistar rat olfactory lobe at 30 mg/kg, ip after 2 hrs measured per 100 mg tissue; assay type: functional; settings: route intraperitoneal
# Mus musculus [25] = experiment: Anticonvulsant activity in albino CF-1 mouse at 300 mg/kg, ip assessed as protection against maximal electroshock-induced seizures in half or more animals after 4 hrs relative to control; assay type: functional; settings: route intraperitoneal
# Mus musculus [26] = experiment: Anticonvulsant activity in albino CF-1 mouse assessed as protection against 6 Hz psychomotor seizure at 100 mg/kg, ip after 2 hrs by minimal clonic seizure test relative to control; assay type: functional; settings: route intraperitoneal
smiles,measurement,setting,value
COc1ccc(NC(=S)N/N=C/c2ccc(Oc3ccc(Cl)cc3)cc2)cc1,logP at 24 h,physchem,5.68
Cc1ccc(NC(=S)N/N=C/c2ccc(Oc3ccc(Cl)cc3)cc2)cc1,logP at 24 h,physchem,6.71
COc1ccc(NC(=S)N/N=C/c2ccc(Oc3ccc(Br)cc3)cc2)cc1,logP at 24 h,physchem,5.84
Cc1ccc(Oc2ccc(/C=N/NC(=S)NC3CCCCC3)cc2)cc1,logP at 24 h,physchem,6.17
Cc1cc(Oc2ccc(/C=N/NC(=S)Nc3ccccc3)cc2)ccc1Cl,logP at 24 h,physchem,6.03
same,Activity,Mus musculus [1],inactive
Fc1ccc(Oc2ccc(/C=N/NC(=S)Nc3ccccc3)cc2)cc1,logP at 24 h,physchem,5.09
same,Activity,Mus musculus [1],inactive
COc1ccc(NC(=S)N/N=C/c2ccc(Oc3ccc(F)cc3)cc2)cc1,logP at 24 h,physchem,5.09
same,Activity,Mus musculus [2],25%
same,Activity,Mus musculus [1],inactive
S=C(N/N=C/c1ccc(Oc2ccc(Br)cc2)cc1)Nc1ccccc1,logP at 24 h,physchem,5.62
same,Activity,Mus musculus [1],inactive
O=C1NC(=O)C(c2ccccc2)(c2ccccc2)N1 [PHENYTOIN],Activity,Mus musculus [3],inactive
same,minimal effective dose,Mus musculus [4],30 mg/kg
same,minimal effective dose,Mus musculus [5],30 mg/kg
same,minimal effective dose,Mus musculus [6],30 mg/kg
same,Activity,Mus musculus [7],inactive
Cc1ccc(NC(=S)N/N=C/c2ccc(Oc3ccc4c(c3)OCO4)cc2)cc1,logP at 24 h,physchem,5.34
O=[N+]([O-])c1ccc(Oc2ccc(/C=N/NC(=S)Nc3ccccc3)cc2)cc1,logP at 24 h,physchem,4.95
COc1ccc(NC(=S)N/N=C/c2ccc(Oc3ccccc3)cc2)cc1,logP at 24 h,physchem,4.99
same,Activity,Mus musculus [8],75%
same,Activity,Rattus norvegicus [9],Non-toxic
same,Activity,[10],inactive
same,Activity,Rattus norvegicus [11],inactive
same,Activity,[12],inactive
same,Activity,Mus musculus [13],50%
COc1ccc(NC(=S)N/N=C/c2ccc(Oc3ccc4ccccc4c3)cc2)cc1,logP at 24 h,physchem,6.11
Cc1ccc(NC(=S)N/N=C/c2ccc(Oc3ccc(F)cc3)cc2)cc1,logP at 24 h,physchem,5.48
O=C(O)[C@H]1CNCC12CCCCC2,IC50,[14],120 nM
S=C(N/N=C/c1ccc(Oc2ccc(Br)cc2)cc1)NC1CCCCC1,logP at 24 h,physchem,6.36
same,Activity,Mus musculus [1],inactive
O=[N+]([O-])c1ccc(Oc2ccc(/C=N/NC(=S)NC3CCCCC3)cc2)cc1,logP at 24 h,physchem,5.51
Cc1ccc(NC(=S)N/N=C/c2ccc(Oc3ccc4ccccc4c3)cc2)cc1,logP at 24 h,physchem,6.56
Cc1cc(Oc2ccc(/C=N/NC(=S)NC3CCCCC3)cc2)ccc1Cl,logP at 24 h,physchem,6.76
same,Activity,Mus musculus [8],75%
same,Activity,Mus musculus [1],inactive
S=C(N/N=C/c1ccc(Oc2ccc3ccccc3c2)cc1)Nc1ccccc1,logP at 24 h,physchem,6.07
CCCC(CCC)C(=O)[O-].[Na+] [VALPROATE SODIUM],minimal effective dose,Mus musculus [15],300 mg/kg
same,Activity,Mus musculus [16],inactive
same,Activity,Mus musculus [17],inactive
same,Activity,Mus musculus [18],inactive
same,Activity,Mus musculus [7],inactive
S=C(N/N=C/c1ccc(Oc2ccc3c(c2)OCO3)cc1)Nc1ccccc1,logP at 24 h,physchem,4.8
Cc1ccc(NC(=S)N/N=C/c2ccc(Oc3ccccc3)cc2)cc1,logP at 24 h,physchem,5.28
same,Activity,Mus musculus [13],50%
same,Activity,Mus musculus [1],inactive
Cc1ccc(Oc2ccc(/C=N/NC(=S)Nc3ccccc3)cc2)cc1,logP at 24 h,physchem,5.39
S=C(N/N=C/c1ccc(Oc2ccc(Cl)cc2)cc1)NC1CCCCC1,logP at 24 h,physchem,6.44
same,Activity,Mus musculus [8],75%
same,Activity,Rattus norvegicus [9],Non-toxic
same,ED50,Mus musculus [19],> 100 mg/kg
same,Activity,Mus musculus [3],inactive
same,Activity,Mus musculus [20],100%
same,Activity,Rattus norvegicus [21],51.76 mg
same,Activity,[10],inactive
same,Activity,Rattus norvegicus [11],inactive
same,Activity,[12],inactive
same,Activity,Mus musculus [13],75%
same,minimal effective dose,Mus musculus [6],100 mg/kg
same,Activity,Mus musculus [17],inactive
same,Activity,Rattus norvegicus [22],47.24 mg
same,Activity,Rattus norvegicus [23],24.43 mg
same,Activity,Rattus norvegicus [24],14.81 mg
same,Activity,Mus musculus [18],inactive
same,Activity,Mus musculus [1],inactive
same,Activity,Mus musculus [7],inactive
S=C(N/N=C/c1ccc(Oc2ccccc2)cc1)NC1CCCCC1,logP at 24 h,physchem,5.7
Cc1ccc(NC(=S)N/N=C/c2ccc(Oc3ccc([N+](=O)[O-])cc3)cc2)cc1,logP at 24 h,physchem,5.23
S=C(N/N=C/c1ccc(Oc2ccccc2)cc1)Nc1ccccc1,logP at 24 h,physchem,4.9
S=C(N/N=C/c1ccc(Oc2ccc3ccccc3c2)cc1)NC1CCCCC1,logP at 24 h,physchem,6.79
COc1ccc(NC(=S)N/N=C/c2ccc(Oc3ccc(C)cc3)cc2)cc1,logP at 24 h,physchem,5.44
same,Activity,Mus musculus [25],100%
same,Activity,Mus musculus [8],100%
same,Activity,Rattus norvegicus [9],Non-toxic
same,ED50,Mus musculus [19],> 100 mg/kg
same,Activity,Mus musculus [3],inactive
same,Activity,Rattus norvegicus [21],58.09 mg
same,Activity,Mus musculus [26],50%
same,Activity,[10],inactive
same,Activity,Rattus norvegicus [11],inactive
same,Activity,[12],inactive
same,minimal effective dose,Mus musculus [6],300 mg/kg
same,Activity,Mus musculus [17],inactive
same,Activity,Rattus norvegicus [22],50.08 mg
same,Activity,Rattus norvegicus [23],27.02 mg
same,Activity,Rattus norvegicus [24],15.84 mg
same,Activity,Mus musculus [18],inactive
same,Activity,Mus musculus [7],inactive
Cc1ccc(NC(=S)N/N=C/c2ccc(Oc3ccc(Br)cc3)cc2)cc1,logP at 24 h,physchem,6.23
Cc1ccc(NC(=S)N/N=C/c2ccc(Oc3ccc(C)cc3)cc2)cc1,logP at 24 h,physchem,5.84
S=C(N/N=C/c1ccc(Oc2ccc(Cl)cc2)cc1)Nc1ccccc1,logP at 24 h,physchem,5.52
Fc1ccc(Oc2ccc(/C=N/NC(=S)NC3CCCCC3)cc2)cc1,logP at 24 h,physchem,5.82
same,Activity,Mus musculus [26],50%
same,Activity,Mus musculus [1],inactive
S=C(N/N=C/c1ccc(Oc2ccc3c(c2)OCO3)cc1)NC1CCCCC1,logP at 24 h,physchem,5.56
COc1ccc(NC(=S)N/N=C/c2ccc(Oc3ccc4c(c3)OCO4)cc2)cc1,logP at 24 h,physchem,4.9
COc1ccc(NC(=S)N/N=C/c2ccc(Oc3ccc(Cl)c(C)c3)cc2)cc1,logP at 24 h,physchem,6.03
same,Activity,Mus musculus [1],inactive
COc1ccc(NC(=S)N/N=C/c2ccc(Oc3ccc([N+](=O)[O-])cc3)cc2)cc1,logP at 24 h,physchem,4.9
